Measured values: patent publication US20060041013A1, “Alanosine formulations and methods of use” (priority 2004, published 2006)
Like-named read-outs stand apart in the source and are kept apart here. Each block holds one compound with its values, some of them ahead of it.

Experiments:
BX-PC3 [1] = assay: Drug combinations with L-alanosine, MTT assay; assay type: cell-based; settings: combination with L-alanosine, three days
Procedure: (§1) In each experiment, tumor cells from lung, pancreatic, or mesothelial tumor cell lines were plated in 96-well plates at 5,000 cells/well in 100 μL media. The media for all assays except the Alimta® studies was RPMI-1640 and 10% horse serum. For the Alimta® studies, the media used was RPMI 1640 with dialyzed fetal bovine serum. All media contained 100 Units/mL penicillin and 100 μg/mL streptomycin. The cells were allowed to adhere for 18 hours at 37° C./5.0% CO2. […] After drug addition, cells were incubated three days at 37° C., 5.0% CO2. Cell viability was assayed using a standard MTT assay, as follows: 10 μl of 12 mM 3-[4,5-dimethylthiazol-2-yl]-2,5-diphenyltetrazolium bromide (MTT) (Sigma) were added to each well. The cells were incubated at 37° C., 5% CO2 for 4 to 6 hours. 100 μl of 20% SDS, 0.015 M HCl were added to each well and the cells were incubated overnight. Cytotoxicity was measured by reading absorbance at 595 nm.
(§2) Data analysis was performed using GraphPad Prism version 3.0 (GraphPad Software, San Diego, Calif. USA).

NCI-H2452 [2] = assay: Drug combinations with L-alanosine, MTT assay; assay type: cell-based; settings: combination with L-alanosine, mesothelioma, three days
Procedure: as §1, §2

PanC1 = assay: Drug combinations with L-alanosine, MTT assay; assay type: cell-based; settings: combination with L-alanosine, pancreatic, three days
Procedure: as §1, §2

A549 [3] = assay: Docetaxel, 5-FU, SDX-102 alone or combined, MTT/MTS cytotoxicity (Example 4); assay type: cell-based; settings: Homo sapiens; A549, NSCLC, single agent, MTT 72 hours
NCI-H292 [4] = assay: as above; assay type: cell-based; settings: Homo sapiens; NCI-H292, NSCLC, single agent, MTT 72 hours
NCI-H322M = assay: as above; assay type: cell-based; settings: Homo sapiens, NSCLC, single agent, MTT 72 hours
PANC-1 = assay: as above; assay type: cell-based; settings: Homo sapiens; PANC-1, Pancreatic, single agent, MTT 72 hours
BX-PC3 [5] = assay: as above; assay type: cell-based; settings: Homo sapiens, BXPC-3; BX-PC3, Pancreatic, single agent, MTT 72 hours
NCI-H2452 [6] = assay: as above; assay type: cell-based; settings: Homo sapiens; NCI-H2452, Mesothelioma, single agent, MTT 72 hours
A549 [7] = assay: Drug combinations with L-alanosine, MTT assay; assay type: cell-based; settings: combination with L-alanosine, NSCLC, three days
Procedure: as §1, §2

NCI-H2322M = assay: Drug combinations with L-alanosine, MTT assay; assay type: cell-based; settings: combination with L-alanosine, ratio drug:alanosine 1:1000; NSCLC; three days
Procedure: as §1, §2

NCI-H292 [8] = assay: Drug combinations with L-alanosine, MTT assay; assay type: cell-based; settings: combination with L-alanosine, ratio drug:alanosine 1:1000; NSCLC; three days
Procedure: as §1, §2

H-Meso-1 = assay: Mesothelioma xenograft model (H-Meso-1) in SCID mice; assay type: in vivo; settings: thirty-one days following treatment; docetaxel 10 mg/kg intraperitoneally daily Mon-Fri, SDX-102 50 mg/kg osmotic pump; start 100 mm^3; control 1272
A549 NSCLC xenografts = assay: MTAP-negative A549 NSCLC xenografts in SCID mice; assay type: in vivo
A-427 [9] = assay: Intracellular ATP levels (Cell-Titer Glow); assay type: cell-based
Procedure: (§3) MTAP status was determined using immunoblot analyses and correlated with the ability of an MTA analog to rescue ATP levels in cell lines treated with SDX-102. ATP levels were measured using Cell-Titer Glow™ (Promega) after a 3 day treatment with titrated concentrations of either SDX-102 or pemetrexed.
(§4) ATP values measured using Cell-Titer Glow™ (Promega) after 3 days exposure to the MTA analog. Solid lines in FIG. 8 represent the effect of titrations of SDX-102 from 0.05 μM-20 μM (FIG. 8A) or pemetrexed from 0.01 μM-5 μM (FIG. 8B) on cellular ATP levels. The dotted lines represent the effect of a single concentration of SDX-102 (10 μM) or pemetrexed (2.5 μM) with a titration of an MTA analog from 0.1 μM-50 μM.

HS-766T [10] = assay: Intracellular ATP levels (Cell-Titer Glow); assay type: cell-based
Procedure: as §3, §4

NCI-H226 [11] = assay: Intracellular ATP levels (Cell-Titer Glow); assay type: cell-based
Procedure: as §3, §4

A-594 = assay: Intracellular ATP levels (Cell-Titer Glow); assay type: cell-based; settings: 72 h; A-594, NSCLC, MTAP Negative; 3 day treatment
Procedure: as §3

BxPC3 [12] = assay: Intracellular ATP levels (Cell-Titer Glow); assay type: cell-based; settings: Homo sapiens, BXPC-3, 72 h; BxPC3, Pancreatic, MTAP Negative; 3 day treatment
Procedure: as §3

NCI-H2452 [13] = assay: Intracellular ATP levels (Cell-Titer Glow); assay type: cell-based; settings: Homo sapiens
Procedure: as §3

BxPC3 [14] = assay: Cell viability MTT assay (Example 3); assay type: cell-based; settings: Homo sapiens, BXPC-3, 72 h; BxPC3, Pancreatic, MTAP Negative; 3 days
HS-766T [15] = assay: Cell viability MTT assay (Example 3); assay type: cell-based
[16] = Cell viability MTT assay (Example 3); assay type: cell-based; settings: 72 h; A-594, NSCLC, MTAP Negative; 3 days
A-427 [17] = assay: Cell viability MTT assay (Example 3); assay type: cell-based; settings: Homo sapiens, 72 h; A-427, NSCLC, MTAP Positive; 3 days
NCI-H2452 [18] = assay: Cell viability MTT assay (Example 3); assay type: cell-based; settings: Homo sapiens, 72 h; NCI-H2452, Mesothelioma, MTAP Negative; 3 days
NCI-H226 [19] = assay: Cell viability MTT assay (Example 3); assay type: cell-based; settings: Homo sapiens, 72 h; NCI-H226, Mesothelioma, MTAP Positive; 3 days
NCI-H2452 [20] = test system: NCI-H2452
[21] = ratio drug:alanosine 5:1, pancreatic
[22] = ratio drug:alanosine 1:4, pancreas
[23] = ratio drug:alanosine 1:100, pancreas

- EC90 Effect (BX-PC3 [1]; [22]): strong
Structure (SMILES): COc1cc2ncnc(Nc3ccc(F)c(Cl)c3)c2cc1OCCCN1CCOCC1 [Iressa ®, gefitinib]
- EC75 CI value (BX-PC3 [1]; [22]): 0.29
- EC75 Effect (BX-PC3 [1]; [22]): strong

- EC90 Effect (A549 [7]; ratio drug:alanosine 1:100): moderate
- EC90 Effect (NCI-H2322M): synergism
- EC90 Effect (NCI-H2452 [2]; ratio drug:alanosine 1:1000): synergism
- EC90 Effect (NCI-H292 [8]): additive
- EC90 Effect (PanC1; ratio drug:alanosine 1:1000): synergism
Structure (SMILES): CC(=O)O[C@@]12CO[C@@H]1C[C@H](O)[C@@]1(C)C(=O)[C@H](O)C3=C(C)[C@@H](OC(=O)[C@H](O)[C@@H](NC(=O)OC(C)(C)C)c4ccccc4)C[C@@](O)([C@@H](OC(=O)c4ccccc4)[C@H]21)C3(C)C [docetaxel]
- EC75 CI value (A549 [7]; ratio drug:alanosine 1:100): 0.8
- EC75 Effect (A549 [7]; ratio drug:alanosine 1:100): moderate
- EC75 CI value (NCI-H2322M): 0.9
- EC75 CI value (NCI-H2452 [2]; ratio drug:alanosine 1:1000): 0.8
- EC75 Effect (NCI-H2452 [2]; ratio drug:alanosine 1:1000): moderate
- EC75 CI value (NCI-H292 [8]): 1.1
- EC75 Effect (NCI-H292 [8]): additive
- EC75 CI value (PanC1; ratio drug:alanosine 1:1000): 0.6
- EC75 Effect (PanC1; ratio drug:alanosine 1:1000): synergism
- IC50 (A549 [3]): 5000 ± 4000 nM
- IC50 (NCI-H292 [4]): 200 ± 50 nM
- IC50 (NCI-H322M): 6000 ± 2000 nM
- IC50 (PANC-1): 30000 ± 6000 nM
- IC50 (BX-PC3 [5]): 1200 ± 800 nM
- IC50 (NCI-H2452 [6]): 3000 ± 2000 nM
- mean tumor volume (H-Meso-1): 655 mm^3

- EC90 Effect (BX-PC3 [1]; [23]): synergism
Structure (SMILES): CCC1=C[C@@H]2CN(C1)Cc1c([nH]c3ccccc13)[C@@](C(=O)OC)(c1cc3c(cc1OC)N(C)[C@H]1[C@@](O)(C(=O)OC)[C@H](OC(C)=O)[C@]4(CC)C=CCN5CC[C@]31[C@@H]54)C2 [vinorelbine]
- EC75 CI value (BX-PC3 [1]; [23]): 0.6
- EC75 Effect (BX-PC3 [1]; [23]): synergism

The next lines start with the compound.

Structure (SMILES): O=c1[nH]cc(F)c(=O)[nH]1 [5-FU, 5-fluorouracil]
- EC75 CI value (BX-PC3 [1]; [21]): 0.8
- EC75 Effect (BX-PC3 [1]; [21]): moderate
- EC90 Effect (BX-PC3 [1]; [21]): moderate
- EC75 CI value (NCI-H2452 [2]; ratio drug:alanosine 1:1): 0.5
- EC75 Effect (NCI-H2452 [2]; ratio drug:alanosine 1:1): synergism
- EC90 Effect (NCI-H2452 [2]; ratio drug:alanosine 1:1): synergism
- EC75 CI value (PanC1; ratio drug:alanosine 1:1): 0.6
- EC75 Effect (PanC1; ratio drug:alanosine 1:1): synergism
- EC90 Effect (PanC1; ratio drug:alanosine 1:1): synergism
- IC50 (A549 [3]): 1000 ± 600 nM
- IC50 (NCI-H292 [4]): 3000 ± 2000 nM
- IC50 (NCI-H322M): 6000 ± 5000 nM
- IC50 (PANC-1): 14000 ± 4000 nM
- IC50 (BX-PC3 [5]): 3000 ± 2000 nM
- IC50 (NCI-H2452 [6]): 5000 ± 2000 nM

Structure (SMILES): Nc1ccn([C@@H]2O[C@H](CO)[C@@H](O)C2(F)F)c(=O)n1 [gemcitabine]
- EC75 CI value (NCI-H2452 [2]; ratio drug:alanosine 1:100): 0.6
- EC75 Effect (NCI-H2452 [2]; ratio drug:alanosine 1:100): synergism
- EC90 Effect (NCI-H2452 [2]; ratio drug:alanosine 1:100): synergism

Structure (SMILES): CC(=O)O[C@H]1C(=O)[C@@]2(C)[C@H]([C@H](OC(=O)c3ccccc3)[C@]3(O)C[C@H](OC(=O)[C@H](O)[C@@H](NC(=O)c4ccccc4)c4ccccc4)C(C)=C1C3(C)C)[C@]1(OC(C)=O)CO[C@@H]1C[C@@H]2O [paclitaxel]
- tumor growth inhibition (A549 NSCLC xenografts; 60 days monitoring, doses as administered): inhibited tumor growth
- time for the tumors to increase 10-fold in size (A549 NSCLC xenografts; L-alanosine 40 then 20 mg/kg/day, Taxol 16 mg/kg/day i.p., two cycles (day 0, day 41), control 32.2): 43.2 days
- percent mean change in tumor volume (A549 NSCLC xenografts; day 46): 1449±236%

Structure (SMILES): Nc1nc2[nH]cc(CCc3ccc(C(=O)N[C@@H](CCC(=O)O)C(=O)O)cc3)c2c(=O)[nH]1 [pemetrexed]
- EC75 CI value (A549 [7]; ratio drug:alanosine 1:10): 0.9
- EC75 Effect (A549 [7]; ratio drug:alanosine 1:10): slight
- EC90 Effect (A549 [7]; ratio drug:alanosine 1:10): Slight
- EC75 CI value (NCI-H2452 [2]; ratio drug:alanosine 1:1): 0.3
- EC75 Effect (NCI-H2452 [2]; ratio drug:alanosine 1:1): strong
- EC90 Effect (NCI-H2452 [2]; ratio drug:alanosine 1:1): strong
- ATP levels restored by addition of an MTAP substrate, of level in control cells (A-427 [9]; A-427 (MTAP-positive) treated with pemetrexed): more than 85%
- IC50 (A-427 [9]; Homo sapiens, 72 h, A-427, NSCLC, MTAP Positive, 3 day treatment): 5000 nM
- ATP levels restored by addition of an MTAP substrate, of level in control cells (HS-766T [10]; HS-766T (MTAP-positive) treated with pemetrexed): more than 85%
- IC50 (HS-766T [10]; Hs766T, 72 h, HS-766T, Pancreatic, MTAP Positive, 3 day treatment): 800 nM
- IC50 (NCI-H226 [11]; Homo sapiens, 72 h, NCI-H226, Mesothelioma, MTAP Positive, 3 day treatment): 1000 nM
- ATP levels restored by addition of an MTAP substrate, of level in control cells (NCI-H226 [11]; NCI-H226 (MTAP-positive) treated with pemetrexed): more than 85%
- IC50 (A-594): > 20000 nM
- IC50 (BxPC3 [12]): 5000 nM
- IC50 (NCI-H2452 [13]; 72 h, NCI-H2452, Mesothelioma, MTAP Negative, 3 day treatment, read-out: ATP IC50): 100 nM
- IC50 (NCI-H2452 [13]; NCI-H2452, 72 hours incubation, read-out: concentration causing 50% reduction of intracellular ATP): 80 nM
- IC50 (BxPC3 [14]): 50 nM
- IC50 (HS-766T [15]; Hs766T, 72 h, Pancreatic, MTAP Positive, 3 days): > 20000 nM
- rescue by MTAP substrate from loss of viability (HS-766T [15]; MTT assay): fully rescue
- IC50 [16]: 500 nM
- IC50 (A-427 [17]): 3000 nM
- IC50 (NCI-H2452 [18]): 50 nM
- IC50 (NCI-H226 [19]): 1000 nM
- IC75 (NCI-H2452 [20]; NCI-H2452, incubation with 200 nM L-alanosine): 15 nM
- IC75 (NCI-H2452 [20]; NCI-H2452, pemetrexed alone): 200 nM
